The values that follow are results of earlier work, collected in EP0134290A1, “Constant release rate solid dosage theophyllineformulation” (VEREX LABORATORIES, INC., priority 1983, dated 1985).

The conditions of the series: similar dose of regular theophylline; published; spread +- 2.1.

For the compound `Cn1c(=O)c2[nH]cnc2n(C)c1=O` [regular theophylline, theophylline], the excretion half life is 9.0 h.
